Results reported in patent US11154546B2, “Methods and compositions for treatment of mitochondrial toxicity” (Epirium Bio Inc., priority 2011, dated 2021).

Assays:
[1] = tested on: differentiated human skeletal muscle cells; experiment: mitochondrial respiration (oxygen consumption rate, Seahorse apparatus) in differentiated human skeletal muscle cells; format: cell-based; conditions: cells treated with 30 nM epicatechin for 48 h
Procedure: FIG. 1 depicts epicatechin stimulation on-demand mitochondrial respiration in human cells. […] Rates of respiration are reported as oxygen consumption rates (OCR) and were measured using a Seahorse apparatus.
FIG. 2 depicts blockade of epicatechin's stimulatory effect by an inhibitor of pyruvate transport.

[2] = tested on: mitochondrial oxidative phosphorylation (OXPHOS) related complexes; experiment: Western blot of OXPHOS complexes in skeletal muscle of prednisolone-treated rats; format: in vivo; conditions: prednisolone 10 mg/kg/day SC, 10 days, rat quadriceps
Procedure: FIG. 3 depicts the effects of the administration of 10 consecutive days of prednisolone (10 mg/kg/day, SC) on rat skeletal muscle mitochondrial oxidative phosphorylation (OXPHOS) related complexes levels as assessed by Western blots. Three groups of male rats were analyzed: 1) control group (saline solution, SC and saline solution by gavage BID); 2) prednisolone (10 mg/kg/day, SC and saline solution by gavage BID); and 3) prednisolone (10 mg/kg/day, SC) plus epicatechin (Epi; 1 mg/kg/day by gavage BID). Western blots of isolated skeletal muscle (quadriceps) from each group were probed with a cocktail of monoclonal antibodies to electron transport chain proteins (OXPHOS) (20 KDa subunit of complex I, 26 KDa subunit of complex IV, subunit core 2 of complex III, 30 KDa complex II and ATP synthase 54 Kda complex V). […]
Western blots were performed as follows: Approximately 50 mg of the heart and quadriceps femoris muscles were homogenized with a polytron in 500 μl lysis buffer (1% triton X-100, 20 mM Tris, 140 mM NaCl, 2 mM EDTA, and 0.1% SDS) with protease and phosphatase inhibitor cocktails (P2714 and P2850, Sigma-Aldrich, St. Louis, Mo.) supplemented with 0.15 mM PMSF, 5 mM Na3VO4 and 3 mM NaF. […] The total protein content was measured in the supernatant using the Bradford method. […] The band intensities were digitally quantified using ImageJ software.

[3] = fasting glucose levels in prednisolone-treated rats; format: in vivo, rat; conditions: prednisolone 10 mg/kg/day SC, 10 days
Procedure: Three groups of male rats were analyzed: 1) control group (saline solution, SC and saline solution by gavage BID); 2) prednisolone (10 mg/kg/day, SC and saline solution by gavage BID) and; 3) prednisolone (10 mg/kg/day, SC) plus epicatechin (Epi; 1 mg/kg/day by gavage BID). Blood samples were obtained from animals on each group after 12 hours fasting, Glucose levels were determined spectrophotometrically with an autokit glucose (Wako) kit.

[4] = oral glucose tolerance test in prednisolone-treated rats; format: in vivo, rat; conditions: prednisolone 10 mg/kg/day SC, 10 days; oral glucose 1.25 g/Kg, 0-4 hours
Procedure: Blood samples were obtained from animals on each group from 0-4 hours after an oral glucose charge (1.25 g/Kg). Glucose levels were determined spectrophotometrically with an autokit glucose (Wako) kit.

[5] = tested on: isolated mitochondria; experiment: calcium induced mitochondrial damage (swelling, OD at 535 nm) in isolated heart mitochondria; format: biochemical, rat; conditions: 10^−14-10^−12 M; 33 μM CaCl2
Procedure: FIG. 6 depicts the protective effect of epicatechin on calcium induced mitochondrial damage (as measured by mitochondrial swelling). Swelling was evaluated by monitoring changes in optical density (OD, light absorbance) as follows: Hearts from male rats were excised and weighed. Left ventricles were homogenized (0.1 g/mL) in solution A (Sucrose 2M, EDTA 0.01M, Hepes 0.5M: pH=7.4), centrifuged 10 min (800×g), 4° C., the supernatant was centrifuged 10 min (8000×g), 4° C. and the pellet was re-suspended in solution B (Sucrose 2M, EDTA 0.01M, Tris 0.5M-H2PO4-50 mM: pH=7.4) and centrifuged 10 min (10000×g), 4° C. […] Pellet was re-suspended in 10 mL of solution C (Sucrose 2M, EDTA 0.01M, Tris 0.5M, H2PO4 50 mM, Succinate 1M: pH=7.4).

[6] = tested on: mitochondrial permeability transition pores; conditions: cited from earlier work

## N#CC(=Cc1ccccc1)C(=O)O [a-cyannocinnamate]
[1]
  blockade of epicatechin-stimulated maximal rates of respiration: blocked

## OCC1OC(O)CC(O)C1O (stereo not shown) [deoxyglucose]
[1]
  blockade of epicatechin-stimulated maximal rates of respiration: not by deoxyglucose

## C[C@]12C=CC(=O)C=C1CC[C@@H]1[C@@H]2[C@@H](O)C[C@@]2(C)[C@H]1CC[C@]2(O)C(=O)CO [prednisolone]
[2]
  skeletal muscle mitochondrial complex (I-V) levels: reduced
[3]
  glucose levels after 12 hours fasting: significant hyperglycemia
[4]
  oral glucose tolerance: Abnormal glucose tolerance

## O=C(NCCO[N+](=O)[O-])c1cccnc1 [Nicorandil, N-[2-(Nitroxy)ethyl]-3-pyridinecarboxamide]
[5]
  calcium induced mitochondrial swelling: blocks in a dose dependent manner
[6]
  mitochondrial pore formation in response to ischemia: prevent mitochondrial pore formation
